Laboratory results taken from patent US9581586B2, “Approach to asthma inhaler compliance using breath measurement of tetrafluoroethane” (The Regents of the University of California, priority 2014, dated 2017).
Like-named read-outs stand apart in the source and are kept apart here.

Experiments:
[1] = Exhaled breath HFA-134a levels after asthma inhaler administration (GC with MSD); format: in vivo, human
Procedure: Study participants were randomly assigned to inhaled corticosteroid (ICS, Flovent HFA, 220 mcg, n=5) or short acting bronchodilator (Albuterol, Proventil HFA, n=5). Baseline exhaled breath sampling and standard lung function test were performed prior to the medication dispersion. After baseline measurements, the participants inhaled two puffs of either Flovent HFA (Glaxo Smith Kline) or Proventil HFA (Merck & CO., INC) using a spacer (AeroChamberPlus Flow-Vu, Monaghan). Breath sampling and lung function test were performed immediately after inhalation (<5 min), and at 2, 4, 6, 8, 24, and 48 hours post administration (see FIG. 3).
Exhaled breath samples were collected in evacuated electro-polished stainless steel canisters (volume=1.9 L). The analytic system used in this study is similar to the system described in Colman et al., 2001 (18). Briefly, 790 mL of the collected air sample is pre-concentrated in a stainless steel loop filled with glass beads and submerged in liquid nitrogen to remove the nitrogen, oxygen and argon present in the sample. The sample is re-vaporized using hot water (at approximately 80° C.) and split into five different column/detector combinations housed in three gas chromatographs (GCs) using UHP helium as the carrier gas: (1) DB-1 column (J&W; 60 m, 0.32 mm I.D., 1 μm film thickness) output to a flame ionization detector (FID); (2) DB-5 column (J&W; 30 m, 0.25 mm I.D., 1 vim film thickness) connected in series to a RESTEK 1701 column (5 m, 0.25 mm I.D., 0.5 μm film thickness) and output to an electron capture detector (ECD); (3) RESTEK 1701 column (60 m, 0.25 mm I.D., 0.50 μm film thickness) output to an ECD; (4) PLOT column (J&W GS-Alumina; 30 m, 0.53 mm I.D.) connected in series to a DB-1 column (J&W; 5 m, 0.53 mm I.D., 1.5 μm film thickness) and output to an FID; (5) DB-5 ms column (J&W; 60 m, 0.25 mm I.D., 0.5 μm film thickness) output to a quadrupole mass spectrometer detector (MSD, HP 5973). The MSD is set to operate in selected ion monitoring (SIM) mode with one ion chosen to quantify each compound in order to achieve the maximum selectivity and to avoid potential interferences. All gas chromatographs and detectors used in this study are manufactured by Hewlett Packard. The analytical system allows for the identification and quantification of different classes of volatile organic compounds (VOCs). […] Simultaneously, room air samples were also collected in the same location to quantify corresponding ambient levels of HFA-134a.

[2] = Three compartment pharmacokinetic analysis of HFA elimination in breath after Flovent HFA; format: in vivo, human; conditions: for half-life: human, exhaled breath, inhaled
Procedure: 24 hr, 36 hr, and 48 hr—post Flovent HFA administration (red and blue open circle). All sample collections were held open space. […] The calculated half-lives are 0.97, 20.7, and 442 minutes for subject #1 and 0.92, 27.6, and 355 minutes for subject #2.
As further disclosed in FIG. 5, the inventors re-defined the experiment and have performed a compartmental pharmacokinetic analysis of HFA elimination kinetics using HFA at 5 min, 7 min, 10 min, 15 min, 30 min, 1 hr, 2 hr, 3 hr, 4 hr, 6 hr, 8 hr, 12 hr. 24 hr, 36 hr, and 48 hr—post Flovent HFA administration. The HFA elimination could be modeled using three compartment pharmacokinetic analysis (Eq1). […] The elimination rate constant in each compartment, L1, L2, and L3, respectively are −0.1970, −0.0183, and −0.0013 for subject #1 and −0.1720, −0.0142, and −0.0018 for subject #2. The corresponding half-lives are 0.97, 20.7, and 442 minutes for subject #1 and 0.92, 27.6, and 355 minutes for subject #2.

[3] = Exhaled breath HFA-134a levels after asthma inhaler administration (GC with MSD); format: in vivo, human; conditions: n=1, Flovent HFA one puff per day for nine days, last ICS approximately 24 hr before sampling
[4] = 500 ppm of HFA-134a for two hours; cited from earlier work
[5] = in vivo; cited from earlier work
[6] = metabolite of HFA-134a, only in some urine samples at trace levels; cited from earlier work
[7] = Albuterol subject #3 (Proventil HFA)

Compound: FCC(F)(F)F [HFA-134a, 1,1,1,2-tetrafluoroethane]
- Exhaled HFA-134a levels at the 2-hr time point ([1]; 2 hr post inhaler administration, range over subjects): 28000-266000 pptv
- HFA concentration in breath at 48 hr post typical asthma inhaler administration ([1]; 48 hr post): still detectable
- Breath HFA-134a 48 hr post medication [1, 7]: 224 pptv
- Breath HFA-134a right after medication [1, 7]: 6.2 ppmv
- Breath HFA-134a at 48 hour time point ([1]; ICS subject #3 (Flovent HFA)): 287 pptv
- Breath HFA-134a right after drug administration ([1]; ICS subject #3 (Flovent HFA)): 179 ppmv
- Breath HFA-134a at 48 hour time point ([1]; ICS subject #4 (Flovent HFA)): 351 pptv
- Breath HFA-134a right after drug administration ([1]; ICS subject #4 (Flovent HFA)): 48 ppmv
- Time HFA can be measured in exhaled breath after a typical single inhalation ([1]; down to parts-per-trillion levels): at least 48 hours
- HFA-134a breath levels immediately after inhalation ([1]; healthy controls, Flovent HFA or Proventil HFA, immediately after inhalation): 300×10^6 pptv
- Time HFA is detectable above ambient levels following an inhalation ([1]; healthy participants): up to 24 hours
- Exhaled breath HFA-134a levels right after inhalation (range over subjects) ([1]; healthy participants, two puffs of asthma inhaler, right after inhalation): 3-300 ppmv
- Mean (SD) levels of HFA-134a in exhaled breath at 48-hr post inhaler administration ([1]; seven of ten healthy participants, 48 hr post): 260 (138) pptv
- Breath HFA-134a levels at 48 hours post inhaler administration ([1]; similar to room HFA-134a levels, also at baseline): approximately 200 pptv
- half-life ([2]; subject #1, read-out: Half-life corresponding to L1): 0.97 min
- half-life ([2]; subject #1, read-out: Half-life corresponding to L2): 20.7 min
- half-life ([2]; subject #1, read-out: Half-life corresponding to L3): 442 min
- half-life ([2]; subject #2, read-out: Half-life corresponding to L1): 0.92 min
- half-life ([2]; subject #2, read-out: Half-life corresponding to L2): 27.6 min
- half-life ([2]; subject #2, read-out: Half-life corresponding to L3): 355 min
- Elimination rate constant L1 ([2]; subject #1, post Flovent HFA): −0.1970 reciprocal minutes
- Elimination rate constant L2 ([2]; subject #1, post Flovent HFA): −0.0183 reciprocal minutes
- Elimination rate constant L3 ([2]; subject #1, post Flovent HFA): −0.0013 reciprocal minutes
- Elimination rate constant L1 ([2]; subject #2, post Flovent HFA): −0.1720 reciprocal minutes
- Elimination rate constant L2 ([2]; subject #2, post Flovent HFA): −0.0142 reciprocal minutes
- Elimination rate constant L3 ([2]; subject #2, post Flovent HFA): −0.0018 reciprocal minutes
- Baseline breath HFA level of symptomatic asthma subject on ICS [3]: 710 ppt
- Decrease of exhaled breath HFA-134a compared with HFA-134a in plasma when exposure stopped [4]: almost an order of magnitude faster
- Exhaled breath HFA-134a the day after the exposure [4]: not-detectable
- HFA-134a levels in blood samples [5]: below 10 % of the initially administered concentration

Compound: O=C(O)C(F)(F)F [trifluoroacetic acid]
- Trifluoroacetic acid detected in urine samples [6]: less than 0.0005 % of the administered dose
